Each structure is given as a SMILES string. The source made the active and inactive calls. The rule behind the calls is not given here. Where only a bound is given, the exact number is not on record here.

These results are taken from PubChem BioAssay AID504313 (Emory University Molecular Libraries Screening Center, 2011).

The experiment concerns the target X-box-binding protein 1 (Homo sapiens) (UniProt P17861). As to the kind of experiment: inhibitors of XBP1 reporter signal, dose response, counter-screen, cell-based (AID 504313).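 Note: CHO cells carrying an XBP1 reporter stimulated with tunicamycin; potency is for inhibition of the tunicamycin-induced reporter signal.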 To be noted: XBP1 reporter cell assay, percent of control. Background: Counterscreens check selectivity or assay interference.
For `O=S1(=O)C=C(Sc2nc3ccccc3s2)c2ccccc21`, the IC50 (in general, the concentration that inhibits the measured activity by half) is 2.74 µM.

As to `Cc1ccc2nc(NC(=O)C3CCN(S(=O)(=O)c4cc([N+](=O)[O-])ccc4Cl)CC3)sc2c1`, the IC50 result was “inactive”.

In the case of `Cc1cc(C2=NNC(=NC3CC3)SC2)c(C)n1-c1ccccc1`, the IC50 is < 0.16 µM (inactive).

Regarding `CC[C@@H](C)[C@H](NC(=O)OC(C)(C)C)c1nnc(S(=O)(=O)Cc2cc(C)ccc2C)o1`, the IC50 is 3.76 µM.

As to `CCCNC(=O)c1nnsc1S(=O)(=O)c1ccc(Cl)cc1`, the IC50 is 0.87 µM.

Consider `O=C1C=CC(O)(c2cc(=O)c3c(O)cc(O)cc3o2)C=C1`, for which the IC50 is 3.84 µM.

On to `O=[N+]([O-])c1c(NCCCO)cc(Sc2nc3ccccc3s2)c2nonc12`, for which the IC50 result was “inactive”.

As to `Cc1cc(/C=N/n2cnnc2)c(C)n1-c1ccc(OCc2ccccc2F)cc1`, the IC50 is 4.85 µM.

`Cc1ccc(-c2cc3c(nn2)-c2ccccc2C3=O)cc1`: the IC50 entry is “inactive”.

Regarding `O=C(/C=C\c1cn(-c2ccccc2)nc1-c1ccccc1)Nc1nccs1`, the IC50 entry was “inactive”.

Take `CCOc1ccc(C(=O)C(CCC(CN(C)C)C(=O)c2ccc(OCC)cc2)CN(C)C)cc1` (configuration not stated): the IC50 result is “inactive”.

On to `CC1CCCC(NCC(O)COC(c2ccc(F)cc2)c2ccc(F)cc2)C1C` (configuration not stated), for which the IC50 result is “inactive”.

Turning to `CCC(C)NC(=O)c1c(N)n(CC2CCCO2)c2nc3ccccc3nc12` (configuration not stated), the IC50 was > 10 µM (inactive).

For `Oc1ccc(/C=N/Nc2nc(N3CCCCCC3)nc(N3CCCCCC3)n2)c(O)c1`, the IC50 is > 10 µM (inactive).

In the case of `CC1=C(C)/C(=N\OS(=O)(=O)c2ccc(C)cc2)C=CC1=O`, the IC50 was 1.63 µM.

In the case of `CC1=C/C(=N\OS(=O)(=O)c2ccccc2)C=CC1=O`, the IC50 is 2.9 µM.

In the case of `CC(/C=C1\SC(=O)N(CCCC(=O)O)C1=O)=C\c1ccccc1`, the IC50 was under 0.16 µM.
